Biological target: T1, Sphingosine kinase 2 (Homo sapiens) (UniProt Q9NRA0)
T1 sequence (whole entry): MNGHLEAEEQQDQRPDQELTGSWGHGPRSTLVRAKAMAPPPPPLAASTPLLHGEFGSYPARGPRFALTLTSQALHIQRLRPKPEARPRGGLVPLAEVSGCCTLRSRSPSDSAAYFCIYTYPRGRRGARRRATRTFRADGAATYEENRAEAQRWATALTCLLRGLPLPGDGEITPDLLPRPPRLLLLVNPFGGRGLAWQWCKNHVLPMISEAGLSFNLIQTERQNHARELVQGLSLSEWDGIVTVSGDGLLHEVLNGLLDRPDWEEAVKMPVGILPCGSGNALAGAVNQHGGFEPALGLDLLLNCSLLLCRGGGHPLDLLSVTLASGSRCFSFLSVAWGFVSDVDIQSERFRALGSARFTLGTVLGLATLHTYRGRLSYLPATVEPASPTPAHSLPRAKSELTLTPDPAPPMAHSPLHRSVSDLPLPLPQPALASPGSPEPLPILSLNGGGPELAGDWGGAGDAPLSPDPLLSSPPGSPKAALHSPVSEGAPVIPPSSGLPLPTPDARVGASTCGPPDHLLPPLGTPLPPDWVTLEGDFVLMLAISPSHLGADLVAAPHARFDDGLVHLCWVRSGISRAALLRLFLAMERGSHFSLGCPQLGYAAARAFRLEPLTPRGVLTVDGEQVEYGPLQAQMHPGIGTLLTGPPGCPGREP
Experiment: Inhibition of recombinant human SphK2 assessed as decrease in [33P]SIP production at 0.3 uM using sphingosine as substrate in presence of [gamma33P]-ATP by scintillation counting method relative to control

| Compound | inhibition [%] |
| --- | --- |
| OC[C@H]1CCCN1Cc1ccc(/C=C/c2cccc(C(F)(F)F)c2)cc1 | 0 |
| OC[C@H]1CCCN1Cc1ccc(OCc2ccc(C(F)(F)F)cc2)cc1 | 0 |
| CCCCc1ccc(C#Cc2ccc(CN3CCC[C@@H]3CO)cc2)cc1 | 25 |
| Cc1ccc(CCc2ccc(CN3CCC[C@@H]3CO)cc2)cc1 | 26 |
| OC[C@H]1CCCN1Cc1ccc(Oc2cccc(-c3ccccc3)c2)cc1 | 0 |
| COc1ccc(CCc2ccc(CN3CCC[C@@H]3CO)cc2)cc1 | 3 |
| CC(C)(C)c1cccc(Oc2ccc(CN3CCC[C@@H]3CO)cc2)c1 | 11 |
| OC[C@H]1CCCN1Cc1ccc(Oc2cccc(-c3cccc(C(F)(F)F)c3)c2)cc1 | 11 |
| OC[C@H]1CCCN1Cc1ccc(Oc2ccc(-c3cccc(C(F)(F)F)c3)cc2)cc1 | 52 |
| CC(C)(C)c1ccc(Oc2ccc(CN3CCC[C@@H]3CO)cc2)cc1 | 22 |
| CCCc1ccc(CCc2ccc(CN3CCC[C@@H]3CO)cc2)cc1 | 15 |
| Cc1cc(/C=C/c2ccc(C(C)(C)C)cc2)ccc1CN1CCC[C@@H]1CO | 3 |
| OC[C@H]1CCCN1Cc1ccc(Oc2ccc(-c3ccc(C(F)(F)F)cc3)cc2)cc1 | 0 |
| OC[C@H]1CCCN1Cc1ccc(Oc2ccc(-c3ccccc3)cc2)cc1 | 9 |
| OC[C@H]1CCCN1Cc1ccc(Oc2ccccc2)cc1 | 13 |
| OC[C@H]1CCCN1Cc1ccc(Oc2cccc(-c3ccc(C(F)(F)F)cc3)c2)cc1 | 1 |
| CCCCc1ccc(CCc2ccc(CN3CCC[C@@H]3CO)cc2)cc1 | 0 |
| CCCc1ccc(C#Cc2ccc(CN3CCC[C@@H]3CO)cc2)cc1 | 0 |

Second part, the molecule after the results:

| inhibition [%] | Compound |
| --- | --- |
| 38 | CCCCCCCCCCCCc1ccc(CN2CCC[C@@H]2CO)c(C)c1 |
| 54 | CCCCCCCCCCc1ccc(CN2CCC[C@@H]2CO)cc1 |
| 13 | CCCCCc1ccc(CCc2ccc(CN3CCC[C@@H]3CO)cc2)cc1 |
| 11 | CCCCCCCCCCOc1ccc(CN2CCC[C@@H]2CO)cc1 |
| 19 | CCCCCc1ccc(C#Cc2ccc(CN3CCC[C@@H]3CO)cc2)cc1 |
| 37 | CCCCCCCCCCCCc1ccc(CN2CCC[C@@H]2CO)cc1 |
| 1 | CCCCCCCCOc1ccc(CN2CCC[C@@H]2CO)cc1 |
| 44 | CCCCCCCCCc1ccc(CN2CCC[C@@H]2CO)cc1 |
| 2 | CCCCCCCCCCCc1ccc(CN2CCC[C@@H]2COC(C)=O)cc1 |
| 0 | CCCCCCCOc1ccc(CN2CCC[C@@H]2CO)cc1 |
| 44 | CCCCCCCCCOc1ccc(CN2CCC[C@@H]2CO)cc1 |
| 18 | CCCCCCCCCCCc1ccc(CN2CCC[C@@H]2CO)cc1 |

Biological target: T2, Sphingosine kinase 2 (Homo sapiens, UniProt Q9NRA0)
T2 sequence (Q9NRA0 whole entry): T1 sequence (whole entry)
Description: Inhibition of recombinant human SphK2 assessed as decrease in [33P]SIP production using sphingosine as substrate in presence of [gamma33P]-ATP by scintillation counting method

| Ki [nM] | Compound |
| --- | --- |
| 951 | CCCCCCCCCCCCc1ccc(CN2CCC[C@@H]2CO)cc1 |
| 400 | CCCCCCCCOc1ccc(COc2ccc(-c3noc([C@@H]4CCCN4C(=N)N)n3)cc2C(F)(F)F)cc1 |

Source: ChEMBL document CHEMBL4680333, “Lipophilic tail modifications of 2-(hydroxymethyl)pyrrolidine scaffold reveal dual sphingosine kinase 1 and 2 inhibitors” (Bioorg Med Chem, 2021)
